The values that follow come from paper PMC8394784, “Analogs of a Natural Peptaibol Exert Anticancer Activity in Both Cisplatin- and Doxorubicin-Resistant Cells and in Multicellular Tumor Spheroids” (International Journal of Molecular Sciences, 2021).

Data set [1] has as its system A2780cis (cisplatin-resistant clone of A2780). In words: cells. Particulars: for IC50: A2780cis, 24 h; for fold resistance (FR): ratio IC50 A2780cis / IC50 A2780. The method, then:
(§1) Authenticated cHL-derived cell lines L-1236, L-428, KM-H2, and HDLM-2 were from DSMZ (Braunschweig, Germany). Doxorubicin-resistant KM-H2dx and HDLM-2dx cells were developed in our laboratory by continuous exposure of KM-H2 and HDLM-2 cells to 35 nM doxorubicin. HDLM-2dx and KM-H2dx cells were maintained in doxorubicin and cultured without the drug 72 h before use. All cell lines are here collectively called “cHL cells”. Authenticated OvCa cell lines A2780 and A2780cis were from Sigma-Aldrich, (Milano, Italy) SKOV3 (HTB-77) were obtained from the American Type Culture Collection (ATCC), OVCAR5 (NIH) were provided by Dr. Baldassarre (CRO, Aviano, Italy). A2780cis cells were maintained in 1 µM cisplatin and cultured without the drug for 72 h before use. […] Peripheral blood mononuclear cells (PBMCs) were obtained from healthy donor blood by density gradient centrifugation on a Ficoll-Paque PLUS (GE Healthcare); they were washed twice with PBS before use and cultured in RPMI-1640 medium containing 10% fetal bovine serum. Human dermal fibroblasts, a generous gift of Dr. Capuano [44], were maintained in Dulbecco′s Modified Eagle′s Medium (DMEM) high glucose (Gibco) plus 10% fetal bovine serum.
(§2) OvCa cells and fibroblasts were seeded in 96 well (10.0 × 10^3) the day before treatment to allow cell adherence. […] Half maximal inhibitory concentrations (IC50) were calculated using CalcuSyn software, v2.1 (Biosoft, Ferguson, MO, USA). Fold resistance (FR) was calculated as the ratio of the IC50 of drug-resistant cell line (KM-H2dx, HDLM-2dx, and A2780cis) to that of the respective parental cell line (KM-H2, HDLM-2, and A2780).

For data set [2], the system named is KM-H2dx (doxorubicin-resistant clone of KM-H2). Nature of the data set: cells. Particulars: for fold resistance (FR): ratio IC50 KM-H2dx / IC50 KM-H2. The method, then: as §1, §2
Data set [3] concerns HDLM-2dx (doxorubicin-resistant clone of HDLM-2). In words: cells. The settings on record: for fold resistance (FR): ratio IC50 HDLM-2dx / IC50 HDLM-2. The method, then: as §1, §2
A further data set deals with L-1236. In words: cells. Particulars: L-1236, 24 h. How it is done:
as §2

A further data set deals with KM-H2. Nature of the data set: cells. The settings on record: KM-H2, 24 h. How it is done:
as §2

A further data set concerns SKOV3. In words: cells. The method, then: as §2
A further data set relates to A2780. Nature of the data set: cells. Particulars: A2780, 24 h. The method, then:
as §2

A further data set has as its system OVCAR5. In words: cells. The method, then:
as §2

In a further data set the test system is L-428. Nature of the data set: cells. The settings on record: L-428, 24 h. The method, then: as §2
A further data set has as its system HDLM-2. In words: cells. The settings on record: HDLM-2, 24 h. The method, then:
as §2

The next data set relates to A2780 and A2780cis. In words: K6-FITC uptake, time-lapse confocal microscopy with PI. The format is cell-based, human. Particulars: 30 µM K6-FITC, 37 °C. How it is done:
(§3) The uptake of peptaibols was evaluated by confocal microscopy and flow cytometry using the fluorescent K6-FITC analog. For confocal microscopy, cells were plated onto glass bottom culture dishes and treated with K6-FITC (30 µM) and propidium iodide (PI) 2 µg/mL. K6-FITC uptake was monitored using confocal microscope in time-lapse xyzt acquisition mode (Leica DM IRE2) keeping cells at 37 °C and 5% CO2. To trace peptaibol penetration in spheroids, single four-day-old SKOV3-MCTs were incubated with K6-FITC (20 µM) and images acquired using confocal microscopy.

In another data set the test system is KM-H2 cells. The data set is described as above. The format is cell-based, human. Particulars: KM-H2, 30 µM K6-FITC, PI 2 µg/mL, 60 min of incubation, 37 °C. How it is done: as §3
Data set [4] deals with A2780, A2780cis, and KM-H2 cells. In kind it is cell-based, human. The settings on record: 24 h. The method, then:
Supplemental Figure S6. Cytotoxic activity of K6-FITC. A2780, A2780cis, and KM-H2 cells were cultured with K6-FITC. After 24 hours cell viability was evaluated by MTT assay for A2780 and A2780cis and by MTS assay for KM-H2 cells. Results are mean and SD of three independent experiments. IC50 was calculated using Calcusyn software.
(1 picture or pasted object on this page, not shown here)

For data set [5], the system named is SKOV3-MCTSs. Nature of the data set: K6-FITC penetration in spheroids, confocal microscopy. The format is cell-based, human. The settings on record: 20 µM K6-FITC, four-day-old single spheroids, confocal time-lapse. How it is done: as §3
Data set [6] concerns A2780 and HDLM-2 vs PBMCs and fibroblasts. In words: K6-FITC uptake by flow cytometry, tumor vs normal cells. In kind it is cell-based, human. Particulars: 0.25–2.5 µM K6-FITC, 5, 30 and 120 min, three independent experiments. How it is done: For flow cytometry, cells were treated with different concentrations of K6-FITC (0–2.5 µM). After 5, 30 and 120 min of incubation, cells were washed and evaluated for green fluorescence intensity by flow cytometry on a BD FACSCanto II flow cytometer. Annexin-V assay: cells were treated with peptaibols for 24 h, then stained for 15 min with FITC AnnexinV (Thermo Fisher Scientific, Monza, Italy) and 7-Amino-Actinomycin D (7AAD) (BD Pharmingen, Milano, Italy) and analyzed using flow cytometry. Data were analyzed using BD FACSDiva v.8.0.1 software (BD Biosciences, Milano, Italy).

In data set [7] the test system is human peripheral blood mononuclear cells (PBMCs). In words: Cytotoxicity in healthy cells, MTS assay. The settings on record: 24 h, mean (SD). How it is done:
(§4) Authenticated cHL-derived cell lines L-1236, L-428, KM-H2, and HDLM-2 were from DSMZ (Braunschweig, Germany). Doxorubicin-resistant KM-H2dx and HDLM-2dx cells were developed in our laboratory by continuous exposure of KM-H2 and HDLM-2 cells to 35 nM doxorubicin. HDLM-2dx and KM-H2dx cells were maintained in doxorubicin and cultured without the drug 72 h before use. All cell lines are here collectively called “cHL cells”. Authenticated OvCa cell lines A2780 and A2780cis were from Sigma-Aldrich, (Milano, Italy) SKOV3 (HTB-77) were obtained from the American Type Culture Collection (ATCC), OVCAR5 (NIH) were provided by Dr. Baldassarre (CRO, Aviano, Italy). A2780cis cells were maintained in 1 µM cisplatin and cultured without the drug for 72 h before use. […]
as §2

The subject of data set [8] is SKOV3-MCTSs. Nature of the data set: SKOV3 spheroid (MCTS) volume. Particulars: 25 µM, 3 days of treatment, four-day old single spheroids. The format is cell-based, human. How it is done: To obtain the 3 dimensional (3D) SKOV3-MCTSs, cells were cultured in non-adherent conditions on plates coated twice with 20 mg/mL of poly(2-hydroxyethyl methacrylate) (poly-HEMA; Sigma) in 95% ethanol. Single spheroids with defined size were generated by culturing 1.0 × 10^3 SKOV3 cells onto poly-HEMA-coated 96-well for 4 days. Then, single SKOV3-MCTSs were treated with increasing concentrations of peptaibols (0–25 µM). SKOV3-MCTSs size was measured and photographed up to 72 h after treatment initiation using an inverted microscope (Eclipse TS/100, Nikon) with the DS Camera Control Unit DS-L2 photo micrographic system. SKOV3-MCTSs volumes were calculated using the formula: (width^2 × length × 3.14)/6 [47].

A further data set deals with human fibroblasts. Nature of the data set: Cytotoxicity in healthy cells, MTT assay. The settings on record: healthy human dermal fibroblasts, 24 h, mean (SD). How it is done: as §4, §2
Data set [9] deals with SKOV3-MCTSs. In words: SKOV3 spheroid cell viability, PrestoBlue. In kind it is cell-based, human. Particulars: 24 h treatment. The source says: Multiple SKOV3-MCTSs were obtained by seeding 10.0 × 10^3 cells in non-adherent conditions.

`N.N.[Cl][Pt][Cl]` [Cisplatin, cisplatin]: the IC50 stood at 10.4 µM in data set [1] (MTT, mean (SD)); 1200 nM in data set [2] (KM-H2dx, 24 h, MTS, mean (SD)); 4 µM in data set [3] (HDLM-2dx, 24 h, MTS, mean (SD)); 800 nM in the data set with L-1236 (MTS, mean (SD)); 0.5 µM with KM-H2 (MTS, mean (SD)); 7.7 µM in the data set on SKOV3 (SKOV3, 24 h, MTT, mean (SD)). For the same compound, the IC50 in the data set on A2780 (MTT, mean (SD)) turned out to be 1.3 µM; in the data set with OVCAR5 (OVCAR5, 24 h, MTT, mean (SD)), 7.7 µM; in the data set with L-428 (MTS, mean (SD)) it was 500 nM; in the data set with HDLM-2 (MTS, mean (SD)) it was 1300 nM. The “fold resistance (FR)” value is 8 in [1], 2.6 in data set [2] and 3.11 in data set [3].

With `COc1cccc2c1C(=O)c1c(O)c3c(c(O)c1C2=O)C[C@@](O)(C(=O)CO)C[C@@H]3O[C@H]1C[C@H](N)[C@H](O)[C@H](C)O1` [Doxorubicin], the IC50 in [1] (Homo sapiens) came to 0.116 µM; in data set [2] (Homo sapiens, KM-H2, 24 h), 202 nM; in [3] (Homo sapiens, HDLM-2, 24 h), 0.368 µM; in the data set with L-1236 (Homo sapiens), 46.4 nM; with KM-H2 (Homo sapiens), 0.0221 µM; in the data set with SKOV3 (Homo sapiens, SK-OV-3, 24 h) it was 0.13 µM. The IC50 with A2780 (Homo sapiens) stood at 0.0204 µM; in the data set on OVCAR5 (Homo sapiens, OVCAR-5, 24 h), 0.47 µM; in the data set on L-428 (Homo sapiens) it was 18.4 nM; in the data set on HDLM-2 (Homo sapiens) it was 40.5 nM. Moreover, the “fold resistance (FR)” value is listed as 5.6 in data set [1], 9 in data set [2] and 9 in data set [3].

As to `CCCCCCCC(=O)NC(C)(C)C(=O)NCC(=O)N[C@@H](CC(C)C)C(=O)NC(C)(C)C(=O)NCC(=O)N[C@@H](CCCCN)C(=O)N[C@@H](CC(C)C)C(=O)NC(C)(C)C(=O)NCC(=O)N[C@H](C(=O)N[C@@H](CC(C)C)C(=O)NCCNC(=S)Nc1ccc2c(c1)C(=O)OC21c2ccc(O)cc2Oc2cc(O)ccc21)[C@@H](C)CC` [K6-FITC], the uptake result with A2780 and A2780cis was “rapidly taken up in both cell lines”. Also, in the data set on KM-H2 cells, the “uptake and PI staining” value is on record as “all cells were double stained”. In addition, the IC50 in data set [4] is ~30 µM; in data set [1] (MTT, mean (SD)) it was 29 µM; in the data set on KM-H2 (MTS, mean (SD)) it was 30 µM; in the data set with A2780 (MTT, mean (SD)) it was 24.5 µM. Also, in the data set with SKOV3-MCTSs [5], the “penetration into SKOV3-MCTSs” value was “rapidly and deeply penetrated”. In data set [6], the “uptake (mean fluorescence intensity) by tumor cells compared with normal cells” value is “in a higher quantity and in a faster way”.

As for `CCCCCCCC(=O)NC(C)(C)C(=O)NCC(=O)N[C@@H](CC(C)C)C(=O)NC(C)(C)C(=O)NCC(=O)N[C@@H](CCCCN)C(=O)N[C@@H](CC(C)C)C(=O)NC(C)(C)C(=O)NCC(=O)N[C@H](C(=O)N[C@H](CO)CC(C)C)[C@@H](C)CC` [K6-Lol], the IC50 was 7.1 (0.4) µM in data set [7]; 15.0 (1.4) µM in the data set with human fibroblasts; 9.1 µM in data set [1] (MTT, mean (SD)); 7200 nM in data set [2] (KM-H2dx, 24 h, MTS, mean (SD)); 11.9 µM in data set [3] (HDLM-2dx, 24 h, MTS, mean (SD)); 11700 nM in the data set with L-1236 (MTS, mean (SD)). For the same compound, the IC50 in the data set with KM-H2 (MTS, mean (SD)) worked out at 7.5 µM; with SKOV3 (SKOV3, 24 h, MTT, mean (SD)), 8.4 µM; in the data set with A2780 (MTT, mean (SD)), 7.9 µM; with OVCAR5 (OVCAR5, 24 h, MTT, mean (SD)), 7.5 µM; in the data set on L-428 (MTS, mean (SD)), 8900 nM; with HDLM-2 (MTS, mean (SD)), 12600 nM. Moreover, the SKOV3-MCTS volume entry with SKOV3-MCTSs [8] is listed as “completely eliminated them”. For the same compound, the “fold resistance (FR)” value in data set [2] and in data set [3] was ~1 each time. Also, the SKOV3-MCTS cell viability result with SKOV3-MCTSs [9] is “dose-dependent decrease”.
